Patent publication EP0306455A1, “Cyclodextrin complexes of bis-biguanido hexane compounds” (WARNER-LAMBERT COMPANY, priority 1987, dated 1989)
Structures can show the parent of a compound that is named as a salt. Where two headings read alike, the source gives them in different places.

Assays:
[1] = system: C.albicans; assay: Anti-microbial activity (MIC and MLC); format: cell-based; conditions: complex compared with uncomplexed chlorhexidine digluconate
Text: (§1) A comparison of the anti-microbial activity of chlorhexidine digluconate and beta-cyclodextrin complexed chlorhexidine digluconates were compared against four microorganisms, C.albicans, S. anaguis, S.mutans and A.viscosus.

[2] = system: A.viscosus; assay: Anti-microbial activity (MIC and MLC); format: cell-based; conditions: complex compared with uncomplexed chlorhexidine digluconate
Text: as §1

[3] = system: S. anaguis; assay: Anti-microbial activity (MIC and MLC); format: cell-based; conditions: complex compared with uncomplexed chlorhexidine digluconate
Text: as §1

[4] = system: S.mutans; assay: Anti-microbial activity (MIC and MLC); format: cell-based; conditions: complex compared with uncomplexed chlorhexidine digluconate
Text: as §1

[5] = Procedure: Free chlorhexidine has a water solubility of about 8 mg. per 100 ml. of water at room temperature.
[6] = background statement, temperature not given; dihydrochloride; cited from earlier work

water solubility [5] | water solubility ([5]; water) | SMILES | minimum inhibitory concentration (MIC) [1] | minimum lethal concentration (MLC) [1] | minimum inhibitory concentration (MIC) [2] | minimum lethal concentration (MLC) [2] | minimum inhibitory concentration (MIC) [3] | minimum lethal concentration (MLC) [3] | minimum inhibitory concentration (MIC) [4] | minimum lethal concentration (MLC) [4] | water solubility [6]
 |  | N=C(NCCCCCCNC(=N)NC(=N)Nc1ccc(Cl)cc1)NC(=N)Nc1ccc(Cl)cc1 [chlorhexidine digluconate] | similar | similar | similar | similar | similar | similar | similar | similar | 
about 8 mg. per 100 ml. of water | 8 mg. per 100 ml. of water | [H]/N=C(\N/C(=N/[H])NCCCCCCNC(=N)NC(=N)Nc1ccc(Cl)cc1)Nc1ccc(Cl)cc1 [chlorhexidine, 1,6-di(p-chlorophenylbiguanides) hexane] |  |  |  |  |  |  |  |  | 
 | 60 mg. per 100 ml. of water | [H]/N=C(\N/C(=N/[H])NCCCCCCNC(=N)NC(=N)Nc1ccc(Cl)cc1)Nc1ccc(Cl)cc1 [chlorhexidine dihydrochloride] |  |  |  |  |  |  |  |  | ~60 mg per 100 ml of water
